Assay results from patent publication US20220194938A1, “NOVEL COMPOUNDS AND PHARMACEUTICAL COMPOSITIONS THEREOF FOR THE TREATMENT OF INFLAMMATORY DISORDERS” (GALAPAGOS NV, priority 2019, published 2022).

How the values were obtained:
[1] = system: pooled cryopreserved hepatocytes; experiment: Metabolic stability in hepatocytes (mouse); type: in vitro ADME; details: 1 μM test compound
Protocol: (§1) 4.6. Metabolic Stability in Hepatocytes
(§2) The aim of this assay is to determine the metabolic stability of the compound in hepatocytes (cryopreserved) of different species. Low hepatocyte stability may result in the formation of unwanted metabolites, high clearance, and therefore is not desirable.
(§3) The decrease in parent was assessed by measuring the percentage remaining by LC-MS/MS analysis.
(§4) A 10 mM stock solution of test compound in DMSO was first diluted in DMSO to 3 mM, and then in modified Krebs-Henseleit buffer (Sigma, K3753) to 5 μM. This compound dilution was added to a suspension of pooled cryopreserved hepatocytes (BioreclamationIVT) at 37° C. under gentle shaking.
(§5) Final reaction conditions were: 1 μM of test compound, 0.03% DMSO, 0.5 million viable hepatocytes/mL, and 75 μL incubation volume.
(§6) Testosterone (1 μM) and 7-hydroxycoumarin (1 μM) were used, respectively as phase I and phase II metabolic reaction controls.
(§7) After 0, 10, 20, 45, 90, 120 and 180 min of incubation, the reaction was terminated with 225 μL of MeCN:MeOH (2:1) containing 100 ng/mL of diclofenac as analytical internal standard. Samples were mixed, centrifuged and the supernatant analyzed by LC-MS/MS.
(§8) The instrument responses (ratios of test compound and internal standard peak areas) were referenced to the zero time point samples (considered as 100%) in order to determine the percentage of compound remaining.
(§9) Plots of percentage compound remaining are used to determine the intrinsic clearance in the hepatocyte incubations using the following equations:
(§10) Scaled Clint[L/h/kg]=Clint[μL/min/10^6 cells]*#(10^6) cells/g liver*60*(1/10^6) Scaled Clint unbound [L/h/kg]=Clint [L/h/kg]/Fu,inc where: fu,inc equals hepatocyte binding, derived from microsomal binding (fu,mic) by following equation: […]

[2] = system: pooled cryopreserved hepatocytes; experiment: Metabolic stability in hepatocytes (human); type: in vitro ADME; details: 1 μM test compound
Protocol: as §1, §2, §3, §4, §5, §6, §7, §8, §9, §10

human IRAK-4 = molecular target: T1, human IRAK-4 (Homo sapiens, UniProt Q9NWZ3); experiment: Phosphorylation IC50 determination for human IRAK-4 (ADP-Glo kinase assay); details: human IRAK-4, RIP140 substrate, Km ATP; read-out: IRAK4 ADPglo biochemical assay IC50
T1 construct: purchased Carna Biosciences 09 145
T1 sequence (Q9NWZ3 1-460): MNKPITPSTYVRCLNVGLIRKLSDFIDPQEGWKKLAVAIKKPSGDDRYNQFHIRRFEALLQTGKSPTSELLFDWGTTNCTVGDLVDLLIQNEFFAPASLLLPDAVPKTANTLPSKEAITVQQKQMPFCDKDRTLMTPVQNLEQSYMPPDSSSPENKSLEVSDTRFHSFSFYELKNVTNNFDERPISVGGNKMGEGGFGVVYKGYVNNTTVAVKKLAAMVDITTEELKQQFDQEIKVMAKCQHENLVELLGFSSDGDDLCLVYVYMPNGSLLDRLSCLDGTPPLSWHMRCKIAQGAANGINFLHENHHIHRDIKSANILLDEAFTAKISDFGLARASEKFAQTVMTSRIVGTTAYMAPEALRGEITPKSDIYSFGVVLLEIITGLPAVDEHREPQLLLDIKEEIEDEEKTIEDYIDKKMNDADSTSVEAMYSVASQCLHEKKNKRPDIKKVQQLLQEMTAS
Protocol: 3.1. Phosphorylation IC50 Determination for Human IRAK-4
The phosphorylation of the substrate RIP140 (SEQ ID1) by IRAK4 at Km ATP was detected with the ADP-Glo Kinase Assay (Promega, Cat #V9103), a luminescent kinase assay which measures the ADP formed from a kinase reaction. (Zegzouti et al. 2009) In a second step the kinase reaction was terminated and all the remaining ATP was depleted. In a final step the ADP was converted into ATP and this newly synthesized ATP was measured by using a luciferase/luciferin reaction with a luminescent reader. The luminescent signal positively correlated with kinase activity, in particular kinase inhibition giving a decrease of the luminescent signal.
For the semi-automated assay, the positive control (100% inhibition) was prepared by diluting 10 mM staurosporine stock mixture (20 μL) in water (3.8 mL) and DMSO (180 μL), thus resulting in a […] staurosporine solution at 1% DMSO (final concentration after further dilution in the kinase reaction).
For the automated assay, no pre-dilution of the 10 mM staurosporine stock was made. 10 mM staurosporine was spotted directly in the assay plate using acoustic dispensing and complemented with DMSO to result in a similar final concentration as mentioned above.
For the semi-automated assay, the negative control (0% inhibition) was prepared by mixing water (3.8 mL) and DMSO (200 μL) resulting in a final concentration of 1% DMSO after further dilution in the kinase reaction. For the automated assay no pre-dilution of DMSO was done. 100% DMSO was spotted directly on the assay plate.
The assay buffer solution was prepared at a concentration corresponding to 5 fold the final (most diluted) assay concentration by mixing a solution of 125 mM TRIS pH 7.5+0.05% Triton X-100+2.5 mM EGTA (5.27 mL) with 1M mgCl2 (72 μL), 1M DTT (57.6 μL), and 200 mM MnCl2 (360 μL).
For example, for the semi-automated method, the enzyme-substrate mixture was prepared by mixing water (3999 μL), assay buffer solution (1380 μL), 1 mM RIP140 (138 μL—SEQ ID1), and 200 ng/mL IRAK 4 (3.45 μL Carna Biosciences, 09 145).
For semi-automated method, the ATP mixture was prepared at a concentration corresponding to 2.5 fold the final (most diluted) assay concentration of the semi-automated method and 1.5 fold the final (most diluted) assay concentration of the automated method. For example, for the semi-automated method, the ATP mixture was prepared by mixing water (4126 μL), assay buffer solution (1380 μL), and 10 mM ATP (13.80 μL).
The assay was performed either in a semi-automated or fully automated manner. The assay volume and the incubation time of the ADP detection were different accordingly the method used.
3.1.3.1. Semi-Automated Assay
The compounds were prepared as a serial dilution of 10 point dose responses with 1/5 dilution steps in 100% DMSO starting from 2 mM highest concentration, diluted 1/20 in water. 1 μL was transferred dry to the assay plates.
On each assay plate 32 wells of each control (positive & negative) were added, followed by 2 μL enzyme-substrate mixture.
The reaction was started by adding 2 μL diluted ATP (final concentration Km ATP) on the assay plates. Plates were centrifuged for a few seconds at 1000 rpm followed by an incubation at r.t. for 120 min.
The reactions were stopped and the unconsumed ATP was depleted by adding 5 μL ADP-glo Reagent (Promega, Cat #V9103) to the reaction. The plates were quickly centrifuged at 1000 rpm and incubated at r.t. for 40 min corresponding to full ATP depletion.
The ADP was converted back to ATP and luciferase and luciferin were introduced to detect ATP by adding 10 μL kinase detection reagent (Promega, Cat #V9103) to the reaction. The plates were centrifuged for a few seconds at 1000 rpm and incubated at r.t. for a further 30 min.
Luminescent read out was performed on an Envision luminescent reader (Perkin Elmer). […]

hERG channel = molecular target: T2, hERG channel (Homo sapiens, UniProt Q12809); experiment: hERG channel test - manual patch clamp assay; type: cell-based; details: 10 μM, HEK293 cells stably transfected with hERG, tail current
T2 construct: host or cells: HEK293
T2 sequence (Q12809 whole entry): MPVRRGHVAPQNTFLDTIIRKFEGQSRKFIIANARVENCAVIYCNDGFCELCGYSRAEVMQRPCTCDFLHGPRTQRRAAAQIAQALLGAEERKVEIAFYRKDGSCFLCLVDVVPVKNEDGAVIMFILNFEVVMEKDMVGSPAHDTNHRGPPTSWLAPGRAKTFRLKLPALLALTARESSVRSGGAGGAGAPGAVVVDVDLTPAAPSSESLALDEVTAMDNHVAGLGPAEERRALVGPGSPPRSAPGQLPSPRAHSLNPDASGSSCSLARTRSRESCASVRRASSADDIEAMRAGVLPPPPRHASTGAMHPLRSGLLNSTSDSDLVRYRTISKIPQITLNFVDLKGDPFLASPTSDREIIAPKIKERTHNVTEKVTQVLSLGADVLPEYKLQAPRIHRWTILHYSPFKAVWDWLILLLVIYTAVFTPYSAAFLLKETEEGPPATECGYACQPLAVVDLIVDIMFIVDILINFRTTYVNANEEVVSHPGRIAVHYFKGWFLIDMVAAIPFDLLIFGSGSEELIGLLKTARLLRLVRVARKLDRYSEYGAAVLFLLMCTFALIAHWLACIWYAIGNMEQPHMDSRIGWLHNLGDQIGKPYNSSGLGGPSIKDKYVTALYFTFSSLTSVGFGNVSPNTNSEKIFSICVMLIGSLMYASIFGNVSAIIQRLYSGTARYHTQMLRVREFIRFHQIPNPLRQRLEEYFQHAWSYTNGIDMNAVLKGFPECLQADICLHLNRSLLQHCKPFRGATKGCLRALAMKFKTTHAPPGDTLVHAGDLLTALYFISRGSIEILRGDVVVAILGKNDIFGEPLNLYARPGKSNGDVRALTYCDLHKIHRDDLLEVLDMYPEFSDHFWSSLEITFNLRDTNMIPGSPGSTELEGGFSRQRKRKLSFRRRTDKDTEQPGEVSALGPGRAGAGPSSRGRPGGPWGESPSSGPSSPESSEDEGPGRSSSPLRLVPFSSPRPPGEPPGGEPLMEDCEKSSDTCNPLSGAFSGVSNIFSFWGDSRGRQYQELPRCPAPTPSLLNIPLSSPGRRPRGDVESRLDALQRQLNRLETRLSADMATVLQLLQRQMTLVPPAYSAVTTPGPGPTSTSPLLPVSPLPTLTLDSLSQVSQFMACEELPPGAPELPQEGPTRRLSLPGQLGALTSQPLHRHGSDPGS
Protocol: 4.7 hERG Channel Test—Manual Patch Clamp Assay
The aim of this assay is to determine the in-vitro effects of a test compound on hERG current ([…]) expressed in Human Embryonic Kidney (HEK) cells (evaluation of the blocking profile of test substance on the IKr-like potassium current mediated by hERG channel stably transfected in a human cell line), which is linked to cardiac safety.
The test substance is dissolved in pure dimethylsulfoxide (DMSO) by cold stirring to give a stock solution concentrated 333-fold as compared with the highest concentration to be tested. This stock solution is used to prepare the other stock solutions in DMSO. Each stock solution is used to prepare the solutions containing the final concentrations tested by dilution in extracellular solution (0.1, 1, 10 and 100 μM). Final concentration of DMSO should not not exceed 0.3%.
All formulations are prepared in glass containers.
If a slight opalescence persists at the highest concentration, a 50 μM (instead of 100 μM) concentration is tested.
DMSO diluted in extracellular solution (at the different concentrations used in the final test substance solutions) is used as vehicle.
The extracellular solution is constituted as follows (mM): K-gluconate: 4 mM/Na-gluconate: 145 mM/Mg-gluconate: 2 mM/Ca-gluconate: 3.5 mM/HEPES: 5 mM/glucose: 5 mM/mannitol: 20 mM. The pH is adjusted with NaOH to 7.40±0.05.
Human embryonic kidney (HEK293) cells are stably transfected with the hERG clone (Creacell) and are maintained at 37° C. in a 5% CO2/95% air incubator. Cells used for the study are transferred to an experimental chamber of approximately 2 mL which is maintained at a temperature of 35±0.5° C. by a thermoelectric device (Harvard Apparatus: Type TC-344B) and mounted on the platform of an inverted microscope (Olympus: Type IX-51 or Leica DMI3000 B). Cells are continuously superfused with Tyrode's solution constituted as follows (mM): NaCl: 145/KCl: 4/HEPES: 5/glucose: 5/CaCl2:1/MgCl2: 1.
Ionic currents from hERG-transfected cells are measured using the whole cell configuration of the patch clamp technique. Glass pipettes are pulled from borosilicate glass by a vertical puller (Sutter Instruments: Type P30). Pipette tip resistance is approximately 1.5 to 3.5 MΩ when filled with internal solution constituted as follows (mM): K-gluconate: 145/Mg-gluconate: 1/EGTA: 2/HEPES:5/K2ATP: 2.
The pipettes are connected to the input stage of a patch-clamp amplifier (Axon Instruments: Multiclamp 700B-1). Stimulation, data recording and analysis are performed using specialized Axon Instruments software (pClamp 9.2.0. or pClamp 10.3.0.2).
After rupture of the cell membrane (entering whole-cell mode), cells are stimulated every 10 seconds using the following protocol: 500 ms pulse to +10 mV from a holding potential of −80 mV followed by a 500 ms pulse to −40 mV during which tail current is measured.
Once the current under control conditions is stable, recordings are taken before (control) and after addition of the test substance. The effect of the test substance on tail current is monitored continuously until steady-state is reached. The peak tail current amplitude is averaged for 3 stimuli.
The following parameters are measured: • Cell capacitance (pF). • Peak tail current amplitude (pA).
Peak tail current measurements are normalized using the cell capacitance as an index of cell surface.
The cells will be considered as valid if cell capacitance <80 pF, access resistance <20 MΩ and holding current >−200 pA.
Results are expressed as absolute values and as percentage change from control (percentage of tail current inhibition).
The test substance is studied at 4 ascending concentrations on 3 hERG-transfected cells.
The concentration of test substance inducing 50% of inhibition (IC50) of tail current is determined, if possible, from each individual concentration-response curve. The equation is of the following form: […]

CN(C)C(=O)c1cc2nc(CCC(C)(C)O)cn2cc1NC(=O)c1cccc(C(F)(F)F)n1 [Compound 27, 2-(3-hydroxy-3-methyl-butyl)-N,N-dimethyl-6-[[6-(trifluoromethyl)pyridine-2-carbonyl]amino]imidazo[1,2-a]pyridine-7-carboxamide]
Mouse (Perc. remaining at 90 min) [1]: 108.1% | Human (Perc. remaining at 90 min) [2]: 95.6% | IC50 (human IRAK-4): 10 to 50 nM

CC(C)(O)CCc1cn2cc(NC(=O)c3cccc(C(F)(F)F)n3)c(C(=O)N3CCC3)cc2n1 [Compound 28, N-[7-(azetidine-1-carbonyl)-2-(3-hydroxy-3-methyl-butyl)imidazo[1,2-a]pyridin-6-yl]-6-(trifluoromethyl)pyridine-2-carboxamide]
Mouse (Perc. remaining at 90 min) [1]: 96.25% | Human (Perc. remaining at 90 min) [2]: 93.5% | IC50 (human IRAK-4): 10 to 50 nM

CCOc1cc2nc(CCC(C)(C)O)cn2cc1NC(=O)c1cccn(C)c1=O [Compound 29, N-[7-ethoxy-2-(3-hydroxy-3-methyl-butyl)imidazo[1,2-a]pyridin-6-yl]-1-methyl-2-oxo-pyridine-3-carboxamide]
Mouse (Perc. remaining at 90 min) [1]: 95.2% | Human (Perc. remaining at 90 min) [2]: 98.85% | IC50 (human IRAK-4): 10 to 50 nM

COc1cc2nc(CCC(C)(C)O)cn2cc1NC(=O)c1cccc(Cl)n1 [Compound 34, 6-chloro-N-[2-(3-hydroxy-3-methylbutyl)-7-methoxyimidazo[1,2-a]pyridin-6-yl]pyridine-2-carboxamide]
Mouse (Perc. remaining at 90 min) [1]: 6.59% | Human (Perc. remaining at 90 min) [2]: 49.8% | IC50 (human IRAK-4): 5 to 10 nM

CC(C)(O)CCc1cn2cc(NC(=O)c3cccc(C(F)(F)F)n3)c(C(=O)NCCO)cc2n1 [Compound 40, 2-(3-hydroxy-3-methylbutyl)-N-(2-hydroxyethyl)-6-(6-(trifluoromethyl)picolinamido)imidazo[1,2-a]pyridine-7-carboxamide]
Mouse (Perc. remaining at 90 min) [1]: 94.55% | Human (Perc. remaining at 90 min) [2]: 94.65% | IC50 (human IRAK-4): 0.1 to 5 nM

CC(C)(O)CCc1cn2cc(NC(=O)c3cccc(C(F)(F)F)n3)c(C(=O)NCC(F)(F)F)cc2n1 [Compound 41, 2-(3-hydroxy-3-methylbutyl)-N-(2,2,2-trifluoroethyl)-6-(6-(trifluoromethyl)picolinamido)imidazo[1,2-a]pyridine-7-carboxamide]
hERG Manual Patch Clamp Single dose PIN (10 μM) (hERG channel): −17% | IC50 (human IRAK-4): 0.1 to 5 nM
